SMILES strings stand for the structures.

In the case of `O=[N+]([O-])c1ccc2oc(N3CCN4CCC3CC4)nc2c1`, the melting point lay in the range of 158 to 160 °C.

By melting point is commonly meant the temperature, or range, at which the solid turns liquid.
